Reference: patent US20100086958A1, “NOVEL ENZYME” (priority 2008, published 2010)

How the values were obtained:
Bsp184FDH = assay: Inhibition studies of Bsp184FDH-catalysed formate oxidation; type: biochemical, Burkholderia cenocepacia PC184
Description: (§1) Inhibition of formate oxidation by Bsp383FDH or Bsp184FDH was performed in the presence of the following potential inhibitors: NaN3, NaNO2, KNO3, KNO2, KCN and iodoacetamide at 5 mM and 20 mM concentrations. In a typical procedure, 10 μL of enzyme, Bsp383FDH (0.022 mg/mL) or Bsp184FDH (0.020 mg/mL) was incubated in sodium phosphate buffer (50 mM, pH 7.0) containing 100 mM of formate (sodium formate) and 5 mM and 20 mM inhibitors concentrations for 5 minutes at room temperature. Reaction of formate oxidation was then initiated by addition of NADP in 5 mM final concentration. Absorbance at 340 nm due to NADPH formation was spectrophotometrically monitored using a microtiter plate reader. Absorbance was recorded at 10 seconds intervals for 10 minutes. Initial activities were then calculated using the linear part of the initial readings using at least 20 data points and used directly as relative activity values. Control experiments were also performed in the absence of the enzyme.

Bsp383FDH = assay: Inhibition studies of Bsp383FDH-catalysed formate oxidation; type: biochemical, Burkholderia sp. 383
Description: as §1

For `O=C[O-].[Na+]` [Formate salt], the “inhibition of BcenFDH1” value (Bsp184FDH) was “does not inhibit” and the “inhibition of BspFDH2” value (Bsp383FDH) was “does not inhibit”.
